Test results from ChEMBL document CHEMBL3603829, “Metronidazole hydrazone conjugates: Design, synthesis, antiamoebic and molecular docking studies” (Bioorg Med Chem Lett, 2015).

Tests used:
Entamoeba histolytica = assay: Antiamoebic activity against trophozoite stage of Entamoeba histolytica HM-1:IMSS after 72 hrs by microdilution method; format: functional, organism-based
[1] = Cytotoxicity against human HeLa cells assessed as cell viability at 208 nM after 24 hrs by MTT assay relative to control; format: cell-based; details: read-out: Activity
[2] = Cytotoxicity against human HeLa cells assessed as cell viability at 208 nM after 48 hrs by MTT assay relative to control; format: cell-based; details: read-out: Activity
[3] = Cytotoxicity against human HeLa cells assessed as cell viability at 208 nM after 72 hrs by MTT assay relative to control; format: cell-based; details: read-out: Activity
[4] = Cytotoxicity against human HeLa cells assessed as cell viability at 387 nM after 72 hrs by MTT assay relative to control; format: cell-based; details: read-out: Activity
[5] = Cytotoxicity against human HeLa cells assessed as cell viability at 387 nM after 24 hrs by MTT assay relative to control; format: cell-based; details: read-out: Activity
[6] = Cytotoxicity against human HeLa cells assessed as cell viability at 387 nM after 48 hrs by MTT assay relative to control; format: cell-based; details: read-out: Activity
[7] = Cytotoxicity against human HeLa cells assessed as cell viability at 360 nM after 24 hrs by MTT assay relative to control; format: cell-based; details: read-out: Activity
[8] = Cytotoxicity against human HeLa cells assessed as cell viability at 360 nM after 48 hrs by MTT assay relative to control; format: cell-based; details: read-out: Activity
[9] = Cytotoxicity against human HeLa cells assessed as cell viability at 360 nM after 72 hrs by MTT assay relative to control; format: cell-based; details: read-out: Activity
[10] = Cytotoxicity against human HeLa cells assessed as cell viability at 490 nM after 72 hrs by MTT assay relative to control; format: cell-based; details: read-out: Activity
[11] = Cytotoxicity against human HeLa cells assessed as cell viability at 490 nM after 48 hrs by MTT assay relative to control; format: cell-based; details: read-out: Activity
[12] = Cytotoxicity against human HeLa cells assessed as cell viability at 490 nM after 24 hrs by MTT assay relative to control; format: cell-based; details: read-out: Activity
[13] = Cytotoxicity against human HeLa cells assessed as cell viability at 435 nM after 48 hrs by MTT assay relative to control; format: cell-based; details: read-out: Activity
[14] = Cytotoxicity against human HeLa cells assessed as cell viability at 435 nM after 72 hrs by MTT assay relative to control; format: cell-based; details: read-out: Activity
[15] = Cytotoxicity against human HeLa cells assessed as cell viability at 435 nM after 24 hrs by MTT assay relative to control; format: cell-based; details: read-out: Activity
[16] = Cytotoxicity against human HeLa cells assessed as cell viability at 370 nM after 24 hrs by MTT assay relative to control; format: cell-based; details: read-out: Activity
[17] = Cytotoxicity against human HeLa cells assessed as cell viability at 370 nM after 48 hrs by MTT assay relative to control; format: cell-based; details: read-out: Activity
[18] = Cytotoxicity against human HeLa cells assessed as cell viability at 370 nM after 72 hrs by MTT assay relative to control; format: cell-based; details: read-out: Activity

**Q.** With `Cc1ncc([N+](=O)[O-])n1CCOc1ccc(C=O)cc1` as the molecule, how does the IC50 (Entamoeba histolytica) read?
**A.** 11500 nM

**Q.** For `Cc1ncc([N+](=O)[O-])n1CCOc1ccc(/C=N/NC(=O)c2ccccc2)cc1`, which IC50 (Entamoeba histolytica) is on record?
**A.** 2020 nM

**Q.** For `Cc1ncc([N+](=O)[O-])n1CCOc1ccc(/C=N/NC(=O)c2ccc(Cl)cc2)cc1`, which viability at 24 h, 0.208 µM [1] is on record?
**A.** 85.9%

**Q.** What about the IC50 (Entamoeba histolytica) of the same molecule?
**A.** 200 nM

**Q.** And the viability at 48 h, 0.208 µM [2]?
**A.** 93.7%

**Q.** And the viability at 72 h, 0.208 µM [3]?
**A.** 65.9%

**Q.** With `Cc1ncc([N+](=O)[O-])n1CCOc1ccc(/C=N/NC(=O)c2ccc(O)cc2)cc1` as the molecule, how does the viability at 72 h, 0.387 µM [4] read?
**A.** 54.4%

**Q.** And the viability at 24 h, 0.387 µM [5]?
**A.** 81.9%

**Q.** And the viability at 48 h, 0.387 µM [6]?
**A.** 87.1%

**Q.** And the IC50 (Entamoeba histolytica)?
**A.** 380 nM

**Q.** What does the source list for `Cc1ncc([N+](=O)[O-])n1CCOc1ccc(/C=N/NC(=O)c2ccc([N+](=O)[O-])cc2)cc1`?
**A.** viability at 24 h, 0.36 µM [7]: 78.5%; viability at 48 h, 0.36 µM [8]: 88.9%; IC50 (Entamoeba histolytica): 360 nM; viability at 72 h, 0.36 µM [9]: 68.3%

**Q.** Which IC50 (Entamoeba histolytica) does the source give for `COc1ccc(C(=O)N/N=C/c2ccc(OCCn3c([N+](=O)[O-])cnc3C)cc2)cc1` here?
**A.** 7120 nM

**Q.** What does the source list for `Cc1ccc(C(=O)N/N=C/c2ccc(OCCn3c([N+](=O)[O-])cnc3C)cc2)cc1`?
**A.** viability at 72 h, 0.49 µM [10]: 50.8%; viability at 48 h, 0.49 µM [11]: 83.8%; viability at 24 h, 0.49 µM [12]: 66.2%; IC50 (Entamoeba histolytica): 490 nM

**Q.** What does the source list for `Cc1ncc([N+](=O)[O-])n1CCOc1ccc(/C=N/NC(=O)c2ccc(N)cc2)cc1`?
**A.** viability at 48 h, 0.435 µM [13]: 80.1%; viability at 72 h, 0.435 µM [14]: 60.3%; IC50 (Entamoeba histolytica): 430 nM; viability at 24 h, 0.435 µM [15]: 79.8%

**Q.** Which IC50 (Entamoeba histolytica) does the source give for `Cc1ncc([N+](=O)[O-])n1CCOc1ccc(/C=N/NC(=O)c2ccc(C(C)(C)C)cc2)cc1` here?
**A.** 1980 nM

**Q.** Which IC50 (Entamoeba histolytica) does the source give for `Cc1cc(C)cc(C(=O)N/N=C/c2ccc(OCCn3c([N+](=O)[O-])cnc3C)cc2)c1` here?
**A.** 5960 nM

**Q.** Which IC50 (Entamoeba histolytica) does the source give for `COc1cc(OC)cc(C(=O)N/N=C/c2ccc(OCCn3c([N+](=O)[O-])cnc3C)cc2)c1` here?
**A.** 4390 nM

**Q.** What does the source list for `Cc1ncc([N+](=O)[O-])n1CCOc1ccc(/C=N/NC(=O)c2cc(O)cc(O)c2)cc1`?
**A.** viability at 24 h, 0.37 µM [16]: 93.4%; IC50 (Entamoeba histolytica): 370 nM; viability at 48 h, 0.37 µM [17]: 92.1%; viability at 72 h, 0.37 µM [18]: 59.8%

**Q.** With `COc1cc(C(=O)N/N=C/c2ccc(OCCn3c([N+](=O)[O-])cnc3C)cc2)cc(OC)c1OC` as the molecule, how does the IC50 (Entamoeba histolytica) read?
**A.** 2600 nM
